Here are results for 22 molecules from ChEMBL document CHEMBL4414553, “Imidazopyridine-based selective and multifunctional ligands of biological targets associated with psychiatric and neurodegenerative diseases” (Eur J Med Chem, 2019).

In data set [1] the target is T1, 5-hydroxytryptamine receptor 4 (Homo sapiens, UniProt Q13639). As to the kind of experiment: Inhibition of 5-HT4 receptor (unknown origin).
Data set [2] in a line: Lipophilicity, log D of the compound. The conditions noted are these: octanol/water. In kind it is physicochemical.
Data set [3] in a line: Partition coefficient, log P of the compound. Format: physicochemical. The following applies: octanol/water.
The target of data set [4] is T2, 5-hydroxytryptamine receptor 3A (Homo sapiens, UniProt P46098).
T2 sequence (P46098 whole entry): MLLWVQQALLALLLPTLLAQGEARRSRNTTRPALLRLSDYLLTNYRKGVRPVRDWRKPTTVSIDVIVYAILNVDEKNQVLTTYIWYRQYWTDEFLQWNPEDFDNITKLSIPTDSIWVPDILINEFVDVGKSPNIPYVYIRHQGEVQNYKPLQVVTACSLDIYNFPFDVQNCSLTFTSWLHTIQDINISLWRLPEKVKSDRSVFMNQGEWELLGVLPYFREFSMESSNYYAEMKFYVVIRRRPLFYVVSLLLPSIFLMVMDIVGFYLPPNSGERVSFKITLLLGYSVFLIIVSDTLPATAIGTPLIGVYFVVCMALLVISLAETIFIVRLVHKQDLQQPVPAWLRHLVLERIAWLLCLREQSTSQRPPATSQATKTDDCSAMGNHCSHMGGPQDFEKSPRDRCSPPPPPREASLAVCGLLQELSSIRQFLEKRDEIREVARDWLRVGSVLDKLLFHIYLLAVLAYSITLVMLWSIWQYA
As to the kind of experiment: Antagonist activity at 5-HT3 receptor (unknown origin).

Data set [5] has as its target Glutamate [NMDA] receptor. In words: Modulator activity at NMDA receptor (unknown origin). Format: protein-complex assay, Homo sapiens.
Data set [6] in a line: Inhibition of MARK (unknown origin). On the set-up: species or system Homo sapiens.
In data set [7] the target is T1, 5-hydroxytryptamine receptor 4. As to the kind of experiment: Antagonist activity at 5-HT4 receptor (unknown origin).
Data set [8] has as its system Mus musculus. In words: Inhibition of DYRK1A in mouse at 3 mg/kg relative to control. Format: functional.
Data set [9] is described as follows: Inhibition of CBR (unknown origin). Also on record: species or system Homo sapiens.
The target of data set [10] is T3, D(4) dopamine receptor (Homo sapiens, UniProt P21917).
T3 sequence (P21917 whole entry): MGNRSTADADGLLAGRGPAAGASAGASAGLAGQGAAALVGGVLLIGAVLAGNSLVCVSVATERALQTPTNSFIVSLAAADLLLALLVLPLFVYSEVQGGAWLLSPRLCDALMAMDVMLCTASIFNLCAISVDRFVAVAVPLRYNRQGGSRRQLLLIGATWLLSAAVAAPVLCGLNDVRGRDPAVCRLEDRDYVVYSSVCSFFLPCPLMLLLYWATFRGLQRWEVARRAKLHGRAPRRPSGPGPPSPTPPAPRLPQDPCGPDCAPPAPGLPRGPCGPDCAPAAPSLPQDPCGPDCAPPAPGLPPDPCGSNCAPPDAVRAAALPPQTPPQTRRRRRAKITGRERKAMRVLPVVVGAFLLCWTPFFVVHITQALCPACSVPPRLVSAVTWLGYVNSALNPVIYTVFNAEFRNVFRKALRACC
As to the kind of experiment: Agonist activity at dopamine D4 receptor (unknown origin).

Data set [11] deals with Translocator protein (Homo sapiens, UniProt P30536). As to the kind of experiment: Inhibition of TSPO (unknown origin).
Data set [12] has as its target Histamine H3 receptor (Cavia porcellus, UniProt Q9JI35). In words: Inhibition of Guinea Pig Ileum H3R.
The target of data set [13] is Glycogen synthase kinase-3 (Homo sapiens, UniProt P49840+P49841). In words: Inhibition of GSK3 (unknown origin). In kind it is protein assay.

Translocator protein, sequence (P30536 whole entry): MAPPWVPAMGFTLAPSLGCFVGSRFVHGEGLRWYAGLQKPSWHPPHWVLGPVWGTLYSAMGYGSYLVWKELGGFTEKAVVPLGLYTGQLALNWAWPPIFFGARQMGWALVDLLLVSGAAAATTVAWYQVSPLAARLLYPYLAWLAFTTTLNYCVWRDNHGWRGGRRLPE
T1 sequence (Q13639 whole entry): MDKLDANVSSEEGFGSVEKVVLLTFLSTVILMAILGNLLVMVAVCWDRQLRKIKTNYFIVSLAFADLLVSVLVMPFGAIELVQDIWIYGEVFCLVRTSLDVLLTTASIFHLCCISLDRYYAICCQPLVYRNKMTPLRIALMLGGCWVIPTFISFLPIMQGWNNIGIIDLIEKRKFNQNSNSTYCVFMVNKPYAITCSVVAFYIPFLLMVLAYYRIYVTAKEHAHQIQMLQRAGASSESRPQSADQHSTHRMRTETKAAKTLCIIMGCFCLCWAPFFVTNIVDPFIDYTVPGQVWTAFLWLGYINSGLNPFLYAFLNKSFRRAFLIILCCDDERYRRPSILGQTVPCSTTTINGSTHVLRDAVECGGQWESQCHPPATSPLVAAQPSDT
Histamine H3 receptor, sequence (Q9JI35 whole entry): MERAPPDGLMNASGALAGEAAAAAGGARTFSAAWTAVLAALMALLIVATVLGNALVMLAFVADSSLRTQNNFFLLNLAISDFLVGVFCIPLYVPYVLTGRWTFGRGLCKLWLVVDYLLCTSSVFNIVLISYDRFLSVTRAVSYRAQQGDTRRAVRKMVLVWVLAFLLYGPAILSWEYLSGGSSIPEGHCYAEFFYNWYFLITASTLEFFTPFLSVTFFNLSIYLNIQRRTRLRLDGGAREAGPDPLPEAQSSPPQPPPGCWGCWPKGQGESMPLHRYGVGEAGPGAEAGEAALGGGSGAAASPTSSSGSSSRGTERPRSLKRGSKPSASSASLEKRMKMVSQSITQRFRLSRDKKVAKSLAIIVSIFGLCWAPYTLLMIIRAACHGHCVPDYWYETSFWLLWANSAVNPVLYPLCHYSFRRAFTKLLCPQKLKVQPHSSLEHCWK

On to `CC(C)N1C(=O)N(C(=O)NC2CC3CCC(C2)N3C)C2C=CC=CC21` (stereo not given), for which, in data set [1], the EC50 (in general, the concentration needed to bring the measured effect to its halfway point) was found to be 72 nM.

For `c1cc2[nH]cnc2cn1`, the log distribution coefficient (logD) (as a rule, lipophilicity at a set pH, counting ionised and neutral species) in data set [2] (read-out: logD) was 0.03. In addition, the logP (as a rule, a log measure of how a compound divides between an organic and an aqueous phase) in data set [3] (read-out: logP) was determined as 0.04.

As to `O=C(NC1CN2CCC1CC2)c1cc(Cl)cn2ccnc12` (stereo not given), in data set [4], the IC50 (as a rule, the concentration needed to halve the response being measured) came out at 17.5 nM; the Ki (commonly the dissociation constant of the complex between target and ligand, obtained from inhibition or displacement) was 12 nM.

As to `Cc1ccc2c(c1)C1CC(C)CCC1N2c1c(C(F)(F)F)nc2c(C)cccn12` (stereo not given), the IC50 in [5] came to 40000 nM.

Turning to `N[C@H]1CCCC(F)(F)[C@@H]1NC(=O)c1cc(-c2cnc3ccccn23)cs1`, in data set [6], it took 15 nM to reach half-maximal inhibition (IC50).

For the molecule `CCCCN1CCC(CNC(=O)c2cc(Cl)cn3ccnc23)CC1`, the half-maximal inhibitory concentration (IC50) in [7] is below 10 nM.

`Cc1nc2ccc(-c3cc(N)nc(N)c3)nc2n1C(C)C`: in data set [8], the inhibition in vivo (in general, the drop in the measured response relative to a control, in per cent) at 3 mg/kg came to 49%.

`CCCN(CCC)C(=O)Cn1c(-c2ccc(Cl)cc2)nc2cccnc21`: the IC50 in data set [9] was determined as 380 nM.

`c1cnc2[nH]cnc2c1`: the logD in [2] (read-out: logD) worked out at 0.41. Moreover, in data set [3] (read-out: logP), the logP amounted to 0.41.

On to `Cn1cnc2cccnc21`, for which the logD in [2] (read-out: logD) was 0.63. The logP in [3] (read-out: logP) was determined as 0.63.

Take `Clc1ccc(N2CCN(Cc3cn4ccccc4n3)CC2)cc1Cl`: the Ki in [10] came out at 0.99 nM.

Take `CCCN(CCC)C(=O)Cc1c(-c2ccc(Cl)cc2)nc2c(NC(=O)CN(Cc3ccccn3)Cc3ccccn3)cccn12`: the Ki in [11] is 293 nM.

In data set [11], `CCCN(CCC)C(=O)Cc1c(-c2ccc([N+](=O)[O-])cc2)nc2c(Cl)cc(Cl)cn12` displayed a Ki of 0.15 nM.

Regarding `CCCN(CCC)C(=O)Cc1c(-c2ccc(Cl)cc2)nc2c(CC(=O)CCCCC(=O)Nc3ccn([C@@H]4O[C@H](CO)[C@@H](O)[C@@H]4O)c(=O)n3)cccn12`, half-maximal inhibition in data set [11] (IC50) was put at 2.13 nM.

On to `CCCN(CCC)C(=O)Cc1c(-c2ccc(Cl)cc2)nc2c(NC(=O)CCC(=O)OCC)cccn12`, for which, in [11], the inhibitory constant (Ki) turned out to be 0.86 nM.

With `Cn1nc(N2CCC(OC(=O)N3CCN(C4CCC4)CC3)CC2)ccc1=O` [LML-134], in [12], the inhibitory constant (Ki) is 12 nM.

`Cc1nc2ccc(-c3cc(N)nc(N)c3)nc2n1C1CC1`: in [8], at 3 mg/kg the inhibition in vivo was 44%.

In data set [11], `CCCN(CCC)C(=O)Cc1c(-c2ccc(Cl)cc2)nc2ccc(Cl)cn12` [ALPIDEM] yielded an IC50 of 7.9 nM and a Ki of 0.5 to 7 nM. Moreover, in data set [9], the half-inhibitory concentration (IC50) was 26 nM.

Consider `CCCN(CCC)C(=O)Cc1c(-c2ccc(OC)cc2)nc2c(Cl)cc(Cl)cn12`, for which, in [11], the inhibition constant (Ki) amounted to 0.537 nM. In [9], this molecule yielded an IC50 above 10000 nM.

`COc1ccc(-c2ccnc3[nH]c(-c4ccc(C(=O)N5CCCCC5)cc4)nc23)cc1` gave an IC50 in data set [13] of 31 nM.

Turning to `c1ccn2ccnc2c1`, the logD in data set [2] was found to be 0.73. Besides, the logP in [3] came out at 0.41.

Turning to `N[C@H]1CCCC(F)(F)[C@@H]1NC(=O)c1nc(-c2cnc3ccccn23)c(Cl)s1`, the IC50 in [6] came to 720 nM.
